Data from paper PMC10895674, “First-in-Class Dual EZH2-HSP90 Inhibitor Eliciting Striking Antiglioblastoma Activity In Vitro and In Vivo” (Journal of Medicinal Chemistry, 2024).

Columns and labels:
[1] = molecular target: EZH2 (Homo sapiens, UniProt Q15910); assay: EZH2 inhibition assay (Reaction Biology Corp.); assay type: biochemical; settings: for IC50: 10-dose IC50 mode, 3-fold serial dilution starting at 10 μM, single experiment
Protocol: The EZH2 inhibitory ability of the synthesized adduct was assessed by Reaction Biology Corporation Malvern, PA. (http://www.reactionbiology.com).

[2] = molecular target: HSP90a (Homo sapiens, UniProt P07900); assay: In vitro Hsp90 assay (Reaction Biology Corp.); assay type: biochemical; settings: for IC50: 10-dose IC50 mode, 3-fold serial dilution starting at 10 μM, single experiment, '-' read as no inhibition
Protocol: The HSP90 inhibitory activity of the synthesized adduct was assessed by Reaction Biology Corporation Malvern, PA. (http://www.reactionbiology.com).

[3] = tested on: TMZ-resistant cells (Pt3R); assay: Cell viability CCK8 assay; assay type: cell-based, human; settings: 72 h; for IC50: Homo sapiens, CCK8, read-out: IC50, cell growth inhibitory effects
Text: The CCK8 reagent was purchased from TargetMOI (Wellesley Hills, MA) and used according to the manufacturer’s instruction.

[4] = tested on: Pt#3-R-induced tumor; assay: In vivo anti-GBM efficacy, Pt3R xenograft; settings: intraperitoneally twice per week; TAZ 10 or 20 mg/kg; STA+TAZ 5+5, 10+10, 15+15 mg/kg
Protocol: In vivo anti-GBM efficacy of compound 7 was also evaluated in this study. For the in vivo study, experimental NOD.CB17-Prkdc^scid/NCrCrl mice (8-week-old) were used and Pt3R cells (1 × 10^6) in 50 μL Dulbecco’s modified Eagle’s medium (DMEM) were injected into the back of mice. After 10 days, the tumor was detectable. […] In a nutshell, the outcome of the in vivo study ascertains that the remarkable in vitro anti-GBM activity profile of dual inhibitor 7 was translated to the in vivo potential.
Animal experiments were approved by the institutional animal care and use committee of Taipei Medical University (IACUC: LAC2022-0288). Male NOD.CB17-Prkdc^scid/NCrCrl mice (8-week-old) were purchased from BioLASCO Taiwan Co., Ltd. (Taipei, Taiwan). Pt3R cells (1 × 10^6) in 50 μL of DMEM were injected into the back of mice. Experimental mice were grouped as follows (Figure 11): DMSO (n = 5), C7–10 mg/kg (n = 4), C7–20 mg/kg (n = 6), TAZ-10 mg/kg (n = 6), TAZ-20 mg/kg (n = 8), STA-5+TAZ-5 mg/kg (n = 7), STA-10+TAZ-10 mg/kg (n = 7) and STA-15+TAZ-15 mg/kg (n = 7). After 10 days, the tumor was touchable. Mice were injected intraperitoneally with DMSO (the control group) or compounds twice per week.

Sequence of EZH2 (Q15910 whole entry): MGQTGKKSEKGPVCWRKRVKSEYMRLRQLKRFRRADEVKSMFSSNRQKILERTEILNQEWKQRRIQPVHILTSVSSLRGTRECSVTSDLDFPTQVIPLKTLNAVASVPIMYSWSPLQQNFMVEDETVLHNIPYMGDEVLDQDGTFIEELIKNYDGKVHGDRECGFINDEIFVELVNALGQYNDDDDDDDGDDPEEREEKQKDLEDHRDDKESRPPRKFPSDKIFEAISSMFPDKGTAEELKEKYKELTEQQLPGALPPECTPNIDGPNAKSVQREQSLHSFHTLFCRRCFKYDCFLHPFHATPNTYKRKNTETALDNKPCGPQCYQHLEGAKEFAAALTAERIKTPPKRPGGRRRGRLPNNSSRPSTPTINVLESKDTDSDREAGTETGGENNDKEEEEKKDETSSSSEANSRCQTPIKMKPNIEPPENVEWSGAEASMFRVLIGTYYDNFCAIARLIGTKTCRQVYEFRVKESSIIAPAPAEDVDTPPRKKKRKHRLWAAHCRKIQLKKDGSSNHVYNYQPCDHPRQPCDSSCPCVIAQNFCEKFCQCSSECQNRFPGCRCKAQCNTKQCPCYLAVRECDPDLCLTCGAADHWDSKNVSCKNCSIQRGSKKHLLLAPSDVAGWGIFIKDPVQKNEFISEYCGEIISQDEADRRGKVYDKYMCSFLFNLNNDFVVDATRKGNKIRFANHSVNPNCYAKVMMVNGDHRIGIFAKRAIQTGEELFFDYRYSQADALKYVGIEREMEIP
Sequence of EZH2 (O75530 whole entry partner): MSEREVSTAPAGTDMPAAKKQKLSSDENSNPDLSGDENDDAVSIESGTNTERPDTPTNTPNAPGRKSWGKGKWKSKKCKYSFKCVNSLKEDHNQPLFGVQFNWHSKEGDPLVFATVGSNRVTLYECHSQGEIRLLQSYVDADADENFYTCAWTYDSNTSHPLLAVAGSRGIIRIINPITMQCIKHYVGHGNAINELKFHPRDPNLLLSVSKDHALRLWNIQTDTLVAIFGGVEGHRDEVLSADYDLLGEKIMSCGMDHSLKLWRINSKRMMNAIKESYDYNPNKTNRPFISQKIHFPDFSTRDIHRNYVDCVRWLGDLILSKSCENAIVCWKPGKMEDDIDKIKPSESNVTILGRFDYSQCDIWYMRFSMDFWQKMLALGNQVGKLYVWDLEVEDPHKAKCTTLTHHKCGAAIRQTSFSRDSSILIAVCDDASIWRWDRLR
Sequence of EZH2 (Q15022 whole entry partner): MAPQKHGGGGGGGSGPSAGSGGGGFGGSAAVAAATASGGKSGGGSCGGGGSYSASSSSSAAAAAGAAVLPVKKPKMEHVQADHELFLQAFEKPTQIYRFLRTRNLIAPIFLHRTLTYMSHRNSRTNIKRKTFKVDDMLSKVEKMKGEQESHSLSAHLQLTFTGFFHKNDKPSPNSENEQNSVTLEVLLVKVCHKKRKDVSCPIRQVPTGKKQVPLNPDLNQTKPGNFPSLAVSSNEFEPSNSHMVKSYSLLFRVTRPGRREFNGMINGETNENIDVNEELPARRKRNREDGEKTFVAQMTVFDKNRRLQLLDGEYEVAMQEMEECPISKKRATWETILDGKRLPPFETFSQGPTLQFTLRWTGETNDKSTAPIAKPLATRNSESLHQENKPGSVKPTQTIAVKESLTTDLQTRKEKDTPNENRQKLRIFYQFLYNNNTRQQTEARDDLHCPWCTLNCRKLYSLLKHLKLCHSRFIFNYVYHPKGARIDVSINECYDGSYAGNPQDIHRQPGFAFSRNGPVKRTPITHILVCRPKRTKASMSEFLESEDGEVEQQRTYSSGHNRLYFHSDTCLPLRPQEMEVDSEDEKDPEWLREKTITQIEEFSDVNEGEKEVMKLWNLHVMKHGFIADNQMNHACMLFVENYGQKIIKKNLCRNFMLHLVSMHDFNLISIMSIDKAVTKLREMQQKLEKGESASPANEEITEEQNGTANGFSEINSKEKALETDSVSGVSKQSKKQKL
Sequence of EZH2 (Q09028 whole entry partner): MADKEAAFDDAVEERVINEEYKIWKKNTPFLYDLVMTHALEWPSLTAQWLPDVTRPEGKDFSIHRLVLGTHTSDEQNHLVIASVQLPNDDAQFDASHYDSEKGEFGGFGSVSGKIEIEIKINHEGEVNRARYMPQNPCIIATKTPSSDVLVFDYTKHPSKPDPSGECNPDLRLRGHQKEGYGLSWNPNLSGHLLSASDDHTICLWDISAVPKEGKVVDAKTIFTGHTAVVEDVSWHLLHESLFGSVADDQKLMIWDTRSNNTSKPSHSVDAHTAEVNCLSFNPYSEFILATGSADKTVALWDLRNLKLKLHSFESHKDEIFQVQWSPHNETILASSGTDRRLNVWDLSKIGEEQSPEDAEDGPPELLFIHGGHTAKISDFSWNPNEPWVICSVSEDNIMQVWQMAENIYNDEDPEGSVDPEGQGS
Sequence of EZH2 (Q6ZN18 whole entry partner): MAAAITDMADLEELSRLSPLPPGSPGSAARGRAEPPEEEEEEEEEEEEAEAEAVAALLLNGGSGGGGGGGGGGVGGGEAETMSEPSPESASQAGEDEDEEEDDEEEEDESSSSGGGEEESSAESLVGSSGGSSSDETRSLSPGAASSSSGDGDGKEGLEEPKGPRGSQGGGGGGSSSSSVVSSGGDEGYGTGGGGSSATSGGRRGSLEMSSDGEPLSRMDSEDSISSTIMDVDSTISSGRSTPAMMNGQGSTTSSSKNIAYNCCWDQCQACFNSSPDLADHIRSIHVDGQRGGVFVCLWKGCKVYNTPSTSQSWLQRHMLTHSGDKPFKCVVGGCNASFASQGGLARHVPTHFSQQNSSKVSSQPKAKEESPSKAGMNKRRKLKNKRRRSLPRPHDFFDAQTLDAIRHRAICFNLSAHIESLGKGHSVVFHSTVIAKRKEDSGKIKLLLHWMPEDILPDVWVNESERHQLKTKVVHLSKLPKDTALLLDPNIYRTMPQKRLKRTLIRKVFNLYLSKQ

Structure (SMILES) | IC50 [1] | IC50 [2] | fold more potent in inhibiting EZH2 than counterpart 1 ([1]; compound 2 vs 1) | HSP90 inhibitory potential (in words) [2] | IC50 [3] | cell growth inhibitory effects (in words) [3] | tumor growth [4]
CCN(c1cc(-c2ccc(N(C)C(=O)c3cc(C(C)C)c(O)cc3O)cc2)cc(C(=O)NCc2c(C)cc(C)[nH]c2=O)c1C)C1CCOCC1 [Compound 3, 4′-(2,4-Dihydroxy-5-isopropyl-N-methylbenzamido)-N-((4,6-dimethyl-2-oxo-1,2-dihydropyridin-3-yl)methyl)-5-(ethyl(tetrahydro-2H-pyran-4-yl)amino)-4-methyl-[1,1′-biphenyl]-3-carboxamide] | 7.21 nM | 343 nM |  |  | 27400 ± 1580 nM |  | 
CCN(c1cc(-c2ccc(CN3CCOCC3)cc2)cc(C(=O)NCc2c(C)cc(C)[nH]c2=O)c1C)C1CCOCC1 [Tazemetostat, reference compound] |  |  |  |  |  | unable to exert cell growth inhibitory effects | failed to suppress tumor growth
CCCN(C(=O)c1cc(C(C)C)c(O)cc1O)c1ccc(-c2cc(C(=O)NCc3c(C)cc(C)[nH]c3=O)c(C)c(N(CC)C3CCOCC3)c2)cc1 [Compound 5, 4′-(2,4-Dihydroxy-5-isopropyl-N-propylbenzamido)-N-((4,6-dimethyl-2-oxo-1,2-dihydropyridin-3-yl)methyl)-5-(ethyl(tetrahydro-2H-pyran-4-yl)amino)-4-methyl-[1,1′-biphenyl]-3-carboxamide] | 21.8 nM |  |  |  |  |  | 
CCN(C(=O)c1cc(C(C)C)c(O)cc1O)c1cccc(-c2cc(C(=O)NCc3c(C)cc(C)[nH]c3=O)c(C)c(N(CC)C3CCOCC3)c2)c1 [Compound 8, N-((4,6-Dimethyl-2-oxo-1,2-dihydropyridin-3-yl)methyl)-5-(ethyl(tetrahydro-2H-pyran-4-yl)amino)-3′-(N-ethyl-2,4-dihydroxy-5-isopropylbenzamido)-4-methyl-[1,1′-biphenyl]-3-carboxamide] | 36.6 nM | 63.6 nM |  |  | 10800 ± 1000 nM |  | 
CCN(c1cc(-c2cccc(N(Cc3ccccc3)C(=O)c3cc(C(C)C)c(O)cc3O)c2)cc(C(=O)NCc2c(C)cc(C)[nH]c2=O)c1C)C1CCOCC1 [Compound 10, 3′-(N-Benzyl-2,4-dihydroxy-5-isopropylbenzamido)-N-((4,6-dimethyl-2-oxo-1,2-dihydropyridin-3-yl)methyl)-5-(ethyl(tetrahydro-2H-pyran-4-yl)amino)-4-methyl-[1,1′-biphenyl]-3-carboxamide] | 641 nM | 2840 nM |  |  |  | unable to exert cell growth inhibitory effects | 
CCCN(C(=O)c1cc(C(C)C)c(O)cc1O)c1cccc(-c2cc(C(=O)NCc3c(C)cc(C)[nH]c3=O)c(C)c(N(CC)C3CCOCC3)c2)c1 [Compound 9, 3′-(2,4-Dihydroxy-5-isopropyl-N-propylbenzamido)-N-((4,6-dimethyl-2-oxo-1,2-dihydropyridin-3-yl)methyl)-5-(ethyl(tetrahydro-2H-pyran-4-yl)amino)-4-methyl-[1,1′-biphenyl]-3-carboxamide] | 40.1 nM | 9330 nM |  |  |  | unable to exert cell growth inhibitory effects | 

Second part, led by results:

IC50 [1] | IC50 [2] | fold more potent in inhibiting EZH2 than counterpart 1 ([1]; compound 2 vs 1) | HSP90 inhibitory potential (in words) [2] | Structure (SMILES) | IC50 [3] | cell growth inhibitory effects (in words) [3] | tumor growth [4]
2.06 nM |  | 3 fold | devoid of HSP90 inhibitory potential | CCN(c1cc(-c2cccc(NC(=O)c3cc(C(C)C)c(O)cc3O)c2)cc(C(=O)NCc2c(C)cc(C)[nH]c2=O)c1C)C1CCOCC1 [Compound 2, 3′-(2,4-Fihydroxy-5-isopropylbenzamido)-N-((4,6-dimethyl-2-oxo-1,2-dihydropyridin-3-yl)methyl)-5-(ethyl(tetrahydro-2H-pyran-4-yl)amino)-4-methyl-[1,1′-biphenyl]-3-carboxamide] |  | unable to exert cell growth inhibitory effects | 
6.14 nM |  |  | devoid of HSP90 inhibitory potential | CCN(c1cc(-c2ccc(NC(=O)c3cc(C(C)C)c(O)cc3O)cc2)cc(C(=O)NCc2c(C)cc(C)[nH]c2=O)c1C)C1CCOCC1 [Compound 1, 4′-(2,4-Fihydroxy-5-isopropylbenzamido)-N-((4,6-dimethyl-2-oxo-1,2-dihydropyridin-3-yl)methyl)-5-(ethyl(tetrahydro-2H-pyran-4-yl)amino)-4-methyl-[1,1′-biphenyl]-3-carboxamide] |  | unable to exert cell growth inhibitory effects | 
7.35 nM | 823 nM |  |  | CCN(C(=O)c1cc(C(C)C)c(O)cc1O)c1ccc(-c2cc(C(=O)NCc3c(C)cc(C)[nH]c3=O)c(C)c(N(CC)C3CCOCC3)c2)cc1 [Compound 4, N-((4,6-Dimethyl-2-oxo-1,2-dihydropyridin-3-yl)methyl)-5-(ethyl(tetrahydro-2H-pyran-4-yl)amino)-4′-(N-ethyl-2,4-dihydroxy-5-isopropylbenzamido)-4-methyl-[1,1′-biphenyl]-3-carboxamide] |  |  | 
11.7 nM | > 10000 nM |  |  | CCN(c1cc(-c2ccc(N(Cc3ccccc3)C(=O)c3cc(C(C)C)c(O)cc3O)cc2)cc(C(=O)NCc2c(C)cc(C)[nH]c2=O)c1C)C1CCOCC1 [Compound 6, 4′-(N-Benzyl-2,4-dihydroxy-5-isopropylbenzamido)-N-((4,6-dimethyl-2-oxo-1,2-dihydropyridin-3-yl)methyl)-5-(ethyl(tetrahydro-2H-pyran-4-yl)amino)-4-methyl-[1,1′-biphenyl]-3-carboxamide] |  |  | 
